Measurements from patent US6503935B1, “Imidazoles and related compounds as α1A agonists” (Abbott Laboratories, priority 1998, dated 2003).
pKi: −log10 of the molar value. Structures can show the parent of a compound that is named as a salt. Where two headings read alike, the source gives them in different places.

Assays:
[1] = target: T1, α1b (hamster receptor expressed in mouse fibroblasts) (Mesocricetus auratus, UniProt P18841); test: Radioligand binding with [3H]-prazosin, α1b
T1 construct: expressed in transfected cells; host or cells: mouse fibroblasts
T1 sequence (P18841 1-515): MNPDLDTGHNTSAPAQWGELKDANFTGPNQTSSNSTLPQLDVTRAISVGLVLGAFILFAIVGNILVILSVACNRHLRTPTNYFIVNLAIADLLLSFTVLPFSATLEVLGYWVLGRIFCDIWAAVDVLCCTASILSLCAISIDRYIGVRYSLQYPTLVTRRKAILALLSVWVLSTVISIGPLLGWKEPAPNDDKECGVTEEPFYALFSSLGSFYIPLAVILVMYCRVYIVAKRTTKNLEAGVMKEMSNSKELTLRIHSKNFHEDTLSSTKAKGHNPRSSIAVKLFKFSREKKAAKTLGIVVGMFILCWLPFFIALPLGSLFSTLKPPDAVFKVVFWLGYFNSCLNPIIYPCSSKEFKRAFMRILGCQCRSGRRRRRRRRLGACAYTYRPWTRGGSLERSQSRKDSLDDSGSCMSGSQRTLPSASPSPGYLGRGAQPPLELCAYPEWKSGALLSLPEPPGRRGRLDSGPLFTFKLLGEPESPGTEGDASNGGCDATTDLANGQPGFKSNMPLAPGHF
Summary of the method: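 Radioligand binding with [3H]-prazosin: α1A from rat submaxillary gland; α1b hamster receptor and α1d rat receptor, each expressed in mouse fibroblasts.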

Anesthetized Dogs = test: Intraurethral pressure (IUP) in anesthetized dogs; type: in vivo, dog; conditions: Canis lupus familiaris; iv dose causing a maximum increase in IUP of 5 mm Hg, anesthetized female dogs; read-out: Mean IUP ED5
[2] = hamster receptor expressed in mouse fibroblasts, [3H]-prazosin, read-out: Radioligand Binding Ki α1b (Hamster)

CCS(=O)(=O)Nc1cccc2c1CCCC2c1c[nH]cn1.O=C(O)/C=C\C(=O)O (single isomer, unassigned; (+)) [Example 33, (+)-N-[5-(1H-imidazol-4-yl)-5,6,7,8-tetrahydro-1-naphthalenyl]ethanesulfonamide, maleate]
pKi [1, 2]: 5.89

CCS(=O)(=O)Nc1cccc2c1CCCC2c1c[nH]cn1.O=C(O)/C=C\C(=O)O (centres unmarked) [Example 12, N-[5-(1H-imidazol-4-yl)-5,6,7,8-tetrahydro-1-naphthalenyl]ethanesulfonamide, maleate]
pKi [1, 2]: 5.16

CS(=O)(=O)Nc1cccc(Cc2c[nH]cn2)c1.O=C(O)/C=C\C(=O)O [Example 21, N-[3-(1H-imidazol-4-ylmethyl)phenyl]methanesulfonamide, maleate]
pKi [1]: 5.90 | melting point: 142 to 144 °C | ED (5 mmHg IUP increase) (Anesthetized Dogs): 0.0227 µmol/kg

COc1ccc(NS(C)(=O)=O)c2c1C(c1c[nH]cn1)CCC2 (centres unmarked) [Example 26, N-[5,6,7,8-tetrahydro-(1H-imidazol-4-yl)-4-methoxyy-1-naphthalenyl]methanesulfonamide, maleate]
ED (5 mmHg IUP increase) (Anesthetized Dogs): 0.653 µmol/kg

Cc1c(Cc2c[nH]cn2)cccc1NS(C)(=O)=O.O=C(O)/C=C\C(=O)O [Example 28, N-[3-(1H-imidazol-4-ylmethyl)-2-methylphenyl]methanesulfonamide, maleate]
ED (5 mmHg IUP increase) (Anesthetized Dogs): 0.0771 µmol/kg

CCS(=O)(=O)Nc1cccc(Cc2c[nH]cn2)c1C.O=C(O)/C=C\C(=O)O [Example 29, N-[3-(1H-imidazol-4-ylmethyl)-2-methylphenyl]ethanesulfonamide, maleate]
pKi [1]: 5.41 | ED (5 mmHg IUP increase) (Anesthetized Dogs): 0.0411 µmol/kg

CC(c1cccc(NS(C)(=O)=O)c1)c1c[nH]cn1.O=C(O)/C=C\C(=O)O (centres unmarked) [Example 31, N-[3-[1-(1H-imidazol-4-yl)ethyl]phenyl]methanesulfonamide, maleate]
ED (5 mmHg IUP increase) (Anesthetized Dogs): 0.0916 µmol/kg

C=C(c1cccc(NS(=O)(=O)CC)c1)c1c[nH]cn1 [Example 45, N-{3-[1-(1H-imidazol-4-yl)vinyl]phenyly}ethanesulfonamide, maleate]
pKi [1]: 5.76
